Usually IC50 stands for the concentration at which inhibition is half-maximal.

One assay concerns Jurkat. Briefly: Cytotoxicity against human Jurkat cells assessed as growth inhibition after 24 hrs by CellTiter Blue assay. The assay is classed as functional, cell-based.
The next assay concerns KG-1a. The assay can be described thus: Cytotoxicity against human KG1a cells assessed as growth inhibition after 24 hrs by CellTiter Blue assay. The assay is classed as functional, cell-based. Background: The colour change of resazurin is a common sign of viable cells or microbes.
In a further assay the test system is HeLa. Briefly: Cytotoxicity against human HeLa cells assessed as growth inhibition after 72 hrs by MTT assay. It counts as functional, cell-based.
The test system of a further assay is MDA-MB-231. Briefly: Cytotoxicity against human MDA-MB-231 cells assessed as growth inhibition after 72 hrs by MTT assay. The assay is classed as functional, cell-based. The conditions noted are these: MDA-MB-231, 72 h.
Assay [1] deals with Apoptosis regulator Bcl-2 (Homo sapiens, UniProt P10415). The assay can be described thus: Inhibition of biotinylated Bim peptide binding to His-tagged Bcl-2 (unknown origin) preincubated for 1 hr followed by biotinylated Bim peptide addition measured after 2 hrs by ELISA. Background: ELISA stands for enzyme-linked immunosorbent assay.
Apoptosis regulator Bcl-2, sequence (P10415 whole entry): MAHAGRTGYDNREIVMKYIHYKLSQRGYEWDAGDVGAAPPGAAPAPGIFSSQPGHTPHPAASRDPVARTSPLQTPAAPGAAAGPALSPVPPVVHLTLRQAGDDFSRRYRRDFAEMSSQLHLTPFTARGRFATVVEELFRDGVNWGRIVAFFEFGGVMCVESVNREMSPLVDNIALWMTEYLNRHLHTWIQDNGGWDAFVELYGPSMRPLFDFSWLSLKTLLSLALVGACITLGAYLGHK

Some results are limits rather than exact numbers.

In the case of `COc1ccc(Nc2nnc(-c3c[nH]c4ccccc34)o2)cc1`, the IC50 in the assay with Jurkat was more than 100 µM; in the assay on KG-1a, 0.82 µM; in the assay with HeLa it was 5.82 µM; in the assay on MDA-MB-231, 10.1 µM; in assay [1], 29 µM.

On to `Cc1ccc(Nc2nnc(-c3c[nH]c4ccccc34)o2)cc1`, for which the IC50 in the assay on Jurkat is more than 100 µM; in the assay on KG-1a, 4 µM; in the assay on HeLa, 15.8 µM; in the assay with MDA-MB-231, 27.2 µM; in assay [1], 21.1 µM.

With `O=[N+]([O-])c1ccccc1Nc1nnc(-c2c[nH]c3ccccc23)o1`, the IC50 in the assay on Jurkat was found to be 30.2 µM; in the assay on KG-1a, 0.85 µM; with HeLa, 0.3 µM; with MDA-MB-231 it was 0.9 µM; in assay [1], 1.24 µM.

For `c1ccc(CNc2nnc(-c3c[nH]c4ccccc34)o2)cc1`, the half-inhibitory concentration (IC50) with Jurkat was more than 100 µM; in the assay with KG-1a, more than 100 µM; in the assay on HeLa, 7.81 µM; in the assay on MDA-MB-231, 6.47 µM.

On to `Clc1cccc(Nc2nnc(-c3c[nH]c4ccccc34)o2)c1`, for which the IC50 in the assay on Jurkat was more than 100 µM; in the assay with KG-1a it was 32.7 µM; in the assay with HeLa, 5.6 µM; with MDA-MB-231, 8.89 µM; in assay [1], 0.66 µM.

For `Clc1ccc(Nc2nnc(-c3c[nH]c4ccccc34)o2)cc1`, the IC50 was determined as 30.2 µM in the assay on Jurkat, 3.16 µM in the assay with KG-1a, 3.8 µM in the assay on HeLa and 9.77 µM in the assay with MDA-MB-231.

Regarding `O=[N+]([O-])c1ccc(Nc2nnc(-c3c[nH]c4ccccc34)o2)cc1`, the IC50 in the assay on Jurkat is 45 µM; in the assay with KG-1a, 0.89 µM; in the assay on HeLa it was 1.76 µM; in the assay on MDA-MB-231 it was 3.54 µM; in assay [1], 3.83 µM.

On to `Fc1ccc(Nc2nnc(-c3c[nH]c4ccccc34)o2)cc1`, for which the IC50 in the assay with Jurkat was more than 100 µM; with KG-1a it was 21.1 µM; with HeLa it was more than 100 µM; with MDA-MB-231 it was more than 100 µM.

Consider `O=[N+]([O-])c1cccc(Nc2nnc(-c3c[nH]c4ccccc34)o2)c1`, for which the IC50 in the assay with Jurkat is more than 100 µM; with KG-1a, 25.5 µM; in the assay with HeLa, 15.1 µM; in the assay on MDA-MB-231, 34.6 µM.

Turning to `Clc1ccc(Nc2nnc(-c3c[nH]c4ccccc34)o2)cc1Cl`, the IC50 with Jurkat is more than 100 µM; in the assay on KG-1a, 45.3 µM; with HeLa it was 19.3 µM; in the assay with MDA-MB-231, 31.1 µM.

The values above are taken from ChEMBL document CHEMBL4000233, “Synthesis and evaluation of 5-(1H-indol-3-yl)-N-aryl-1,3,4-oxadiazol-2-amines as Bcl-2 inhibitory anticancer agents” (Bioorg Med Chem Lett, 2017).
